Experimental data: article PMC10046020, “In Silico Screening and Optimization of Cell-Penetrating Peptides Using Deep Learning Methods” (Biomolecules, 2023)
Peptide text beside a SMILES is read from it. * marks the point of attachment. FITC = O=C1OC2(c3ccc(O)cc3Oc3cc(O)ccc32)c2ccc(NC(=S)*)cc21; Ahx = NCCCCCC(=O)O

system: MCF-7 cells; settings: not given

Row | Molecule | Permeability [%] | cell permeability compared to the WT peptide
1 | CSCC[C@H](NC(=O)CCCCCNC(=S)Nc1ccc2c(c1)C(=O)OC21c2ccc(O)cc2Oc2cc(O)ccc21)C(=O)N[C@@H](CC(C)C)C(=O)N[C@@H](CCCCN)C(=O)N[C@@H](Cc1c[nH]cn1)C(=O)N[C@@H](CC(C)C)C(=O)N[C@@H](C)C(=O)N[C@@H](CC(C)C)C(=O)N[C@@H](CC(C)C)C(=O)N[C@@H](CC(C)C)C(=O)N[C@@H](CC(C)C)C(=O)N[C@@H](C)C(=O)N[C@@H](C)C(=O)N[C@@H](Cc1c[nH]c2ccccc12)C(=O)N[C@@H](CCCCN)C(=O)N[C@@H](C)C(=O)N[C@@H](CCCNC(=N)N)C(=O)N[C@@H](C)C(N)=O [Peptide 7] ({FITC-Ahx}-MLKHLALLLLAAWKARA-NH2) | 59.07 | –
2 | CSCC[C@H](NC(=O)CCCCCNC(=S)Nc1ccc2c(c1)C(=O)OC21c2ccc(O)cc2Oc2cc(O)ccc21)C(=O)N[C@@H](CC(C)C)C(=O)N1CCC[C@H]1C(=O)NCC(=O)N[C@@H](CC(C)C)C(=O)N[C@@H](C)C(=O)N[C@@H](CC(C)C)C(=O)N[C@@H](CC(C)C)C(=O)N[C@@H](CCCCN)C(=O)N[C@@H](CC(C)C)C(=O)N[C@@H](C)C(=O)N[C@@H](C)C(=O)N[C@@H](Cc1c[nH]c2ccccc12)C(=O)N[C@H](C(=O)N[C@@H](C)C(=O)N[C@@H](CCCNC(=N)N)C(=O)N[C@@H](C)C(N)=O)[C@@H](C)O [Peptide 2] ({FITC-Ahx}-MLPGLALLKLAAWTARA-NH2) | – | lower cell permeability than the WT CPP
3 | CSCC[C@H](NC(=O)CCCCCNC(=S)Nc1ccc2c(c1)C(=O)OC21c2ccc(O)cc2Oc2cc(O)ccc21)C(=O)N[C@@H](CC(C)C)C(=O)N1CCC[C@H]1C(=O)NCC(=O)N[C@@H](CC(C)C)C(=O)N[C@@H](C)C(=O)N[C@@H](CC(C)C)C(=O)N[C@@H](CC(C)C)C(=O)N[C@@H](CC(C)C)C(=O)N[C@@H](CC(C)C)C(=O)N[C@@H](C)C(=O)N[C@@H](C)C(=O)N[C@@H](Cc1c[nH]c2ccccc12)C(=O)N[C@H](C(=O)N[C@@H](C)C(=O)N[C@@H](CCCNC(=N)N)C(=O)N[C@@H](C)C(N)=O)[C@@H](C)O [Peptide 1] ({FITC-Ahx}-MLPGLALLLLAAWTARA-NH2) | 10.40 | –
4 | CSCC[C@H](NC(=O)CCCCCNC(=S)Nc1ccc2c(c1)C(=O)OC21c2ccc(O)cc2Oc2cc(O)ccc21)C(=O)N[C@@H](CCCCN)C(=O)N1CCC[C@H]1C(=O)NCC(=O)N[C@@H](CC(C)C)C(=O)N[C@@H](C)C(=O)N[C@@H](CC(C)C)C(=O)N[C@@H](CC(C)C)C(=O)N[C@@H](CC(C)C)C(=O)N[C@@H](CC(C)C)C(=O)N[C@@H](C)C(=O)N[C@@H](C)C(=O)N[C@@H](CCCCN)C(=O)N[C@@H](CCCCN)C(=O)N[C@@H](C)C(=O)N[C@@H](CCCNC(=N)N)C(=O)N[C@@H](C)C(N)=O [Peptide 10] ({FITC-Ahx}-MKPGLALLLLAAKKARA-NH2) | – | lower cell permeability than the WT CPP

system: not given; settings: Spreadsheet S1: 150 CPP and 150 non-CPP peptides collected from CellPPD, MLCPP, CPPsite 2.0, Lifetein and other publications; cited from earlier work
From the text: Supplement biomolecules-13-00522-s001.zip/biomolecules-2162660_Supplementary Spreadsheets S1 Test Set.csv, table | column: class || Supplement biomolecules-13-00522-s001.zip/biomolecules-2162660_Supplementary Spreadsheets S2 Train Set.csv, table | column: class

Row | Molecule | class (CPP / Non-CPP), Test Set
5 | HAQKQLSKTSWDFIEGEADDGITYSENIAAFKRIRLR | Non-CPP
6 | ILRRRIRKQAHFHSK | Non-CPP
7 | LVVLGKLYGRKKRRQRRR | CPP
8 | LRHHLRHLLRHLRHLLRHLRHHLRHLLRH | CPP
9 | GLFLDTLKGLAGKLLQGLKCIKAGCKP | Non-CPP
10 | QQPFVQQQQPFVQQ | Non-CPP
11 | LLKTTELLKTTELLKTTS | Non-CPP
12 | GRKKRRERRRPPERKC | CPP

same assay, conditions: cited from earlier work

Row | Molecule | class (CPP / Non-CPP), Test Set
13 | VVLYKYRCYKVI | CPP
14 | TWLKYH | CPP
